23 compounds from patent US20250179031A1, “PROTEASOME ENHANCERS AND USES THEREOF” (Board of Trustees of Michigan State University, priority 2022, published 2025) can be followed below.

Common to all, as to assay type: biochemical
For one experiment, the system named is T1, human 20S proteasome.
T1 construct: purchased Boston Biochem, Inc. (Cambridge, MA)
Put plainly: Fluorogenic peptide degradation 20S proteasome activity assay, combination of CT-L, T-L and Casp-L substrates. The note with it: for Fold increase over vehicle (30 μM), enhancement of 20S activity: 30 μM compound, mixture of the three substrates, 15 min pre-treatment at 37° C., 1 h read. Here is the method:
(§1) Activity assays were carried out in a 100 μL reaction volume. Different concentrations (40-1.25 μM) of test compounds (1 μL) were added to a black flat/clear bottom 96-well plate containing 2 nM of human constitutive 20S proteasome ([…]), in 50 mM Tris-HCl at pH 7.8, 100 mM NaCl and allowed to incubate for 15 min at 37° C. Fluorogenic substrates (5 μL) were then added and the enzymatic activity measured at 37° C. on a SpectraMax M5e spectrometer by measuring the change in fluorescence unit per minute for 1 hour at 380-460 nm. The fluorescence units for the vehicle control were set at a 100%, and the ratio of drug-treated sample set to that of vehicle control was used to calculate the fold change in enzymatic activity. The fluorogenic substrates used were one of the following: Suc-LLVY-AMC (CT-L activity, 20 μM), Z-LLE-AMC (Casp-L activity, 20 μM), Boc-LRR-AMC (Trp-L activity, 40 μM) or a combination of the three substrates each at 6.67 μM. Results were analysed and plotted using GraphPad Prism 7.
(§2) Screening of this library of dihydroquinazolines was performed in two stages. In the first stage, each compound was screened at three concentrations (3, 10 and 30 μM) to select lead agents. Secondly, lead agents were further analyzed using full concentration responses (6-point titration ranging from 1.25 μM-40 μM) for each of the three proteolytic activities of the 20S proteasome and a combination thereof. The proteolytic activity of the 20S proteasome can be monitored in vitro by measuring the cleavage of fluorogenic peptide substrates for the different catalytic sites as an increase in 7-amino-4-methycoumarin (AMC) fluorescence overtime. A combination of chymotrypsin-like (CT-L, Suc-LLVY-AMC), tryptic-like (T-L, Boc-LRR-AMC) and caspase-like (Casp-L, Z-LLE-AMC) peptide substrates were used in equal amounts to screen compounds for overall 20S activity.
Pure human 20S proteasome was pre-treated with 3, 10 or 30 μM of one of the analogues or DMSO (vehicle control) for 15 min at 37° C. To each sample was then added a mixture of the three substrates (13.3 μM each). The release of AMC was monitored as fluorescence overtime for 1 h and the resulting 20S activity changes were determined by comparing to the untreated 20S and calculating the fold-increase in activity for each analogue at a given concentration (Table 1, 30 μM).
(§3) After analyzing the results in Table 1, three of the most promising analogues were selected for further studies into their 20S activity. Compounds 10, 2 and 18 were selected to be carried forward based on their fold increase and the highest Max-Fold activities. […] These compounds were then tested to obtain a full concentration—response (FIG. 1) of their activities towards the 20S proteasome using each of the three substrates for the three catalytic sites individually and the combination of the three substrates. This was done to ensure that each of the selected compounds activate the 20S proteasome at all three catalytic sites, which is critical for effective IDP degradation, as these proteins are likely to contain multiple cleavage sites for each.
(§4) Using the data in FIG. 1, the concentration at which 20S activity was doubled (AC200) was calculated for each compound using each substrate and the combination of the three substrates (Table 2).

Experiment [1] concerns T2, human 20S proteasome, chymotrypsin-like (CT-L) site.
T2 construct: purchased Boston Biochem, Inc. (Cambridge, MA)
Kind of experiment: Fluorogenic peptide degradation 20S proteasome activity assay, Suc-LLVY-AMC (CT-L activity). The conditions noted are these: Suc-LLVY-AMC substrate. On the procedure: as §1, §2, §3, §4

Experiment [2] relates to T3, human 20S proteasome, caspase-like (Casp-L) site.
T3 construct: purchased Boston Biochem, Inc. (Cambridge, MA)
Kind of experiment: Fluorogenic peptide degradation 20S proteasome activity assay, Z-LLE-AMC (Casp-L activity). The conditions noted are these: Z-LLE-AMC substrate. Here is the method: as §1, §2, §3, §4

In experiment [3] the test system is T4, human 20S proteasome, tryptic-like (T-L) site.
T4 construct: purchased Boston Biochem, Inc. (Cambridge, MA)
Kind of experiment: Fluorogenic peptide degradation 20S proteasome activity assay, Boc-LRR-AMC (T-L activity). The note with it: Boc-LRR-AMC substrate. On the procedure:
as §1, §2, §3, §4

The mark [4] stands for this setting: combination of the three substrates.
Setting [5] is: combination of the three substrates, 1.25-40 μM titration.

On to `c1ccc(CN2C(c3ccccc3)=Nc3ccccc3C2c2ccccc2)cc1` (stereo not drawn) [Compound 1, 3-Benzyl-2,4-diphenyl-3,4-dihydroquinazoline], for which, in the experiment with human 20S proteasome, the “Fold increase over vehicle (30 μM), enhancement of 20S activity” value (“Fold increase over vehicle (30 μM)” below) came to 4 fold.

As to `COc1ccc2c(c1)N=C(c1ccccc1)N(Cc1ccccc1)C2c1ccccc1` (stereo not drawn) [Compound 2], the “Fold increase over vehicle (30 μM)” value with human 20S proteasome was 7.9 fold. Moreover, the “concentration at which 20S activity was doubled in the combination (in words)” value in the experiment on human 20S proteasome (setting [4]) is “low μM concentrations”. In the experiment with human 20S proteasome (setting [5]), the “AC200 (concentration at which 20S activity was doubled), Combo” value stood at 2.0 µM and the “Max Fold, Combo” value is 10.1 fold. In experiment [1], the “AC200, CT-L” value was 12.9 µM and the “Max Fold, CT-L” value is reported as 5.6 fold. In experiment [2], the “AC200, Casp-L” value came out at 5.6 µM and the “Max Fold, Casp-L” value is 13.4 fold. In experiment [3], the “AC200, T-L” value came out at 5.0 µM and the “Max Fold, T-L” value is reported as 11.7 fold. `Cc1ccc2c(c1)N=C(c1ccccc1)N(Cc1ccccc1)C2c1ccccc1` (stereo not drawn) [Compound 3, 3-Benzyl-7-methyl-2,4-diphenyl-3,4-dihydroquinazoline]: the “Fold increase over vehicle (30 μM)” value in the experiment on human 20S proteasome turned out to be 8.1 fold. Same read-out and setting: the result for `CCCCCc1ccc2c(c1)N=C(c1ccccc1)N(Cc1ccccc1)C2c1ccccc1` (stereo not drawn) [Compound 4, 3-Benzyl-7-pentyl-2,4-diphenyl-3,4-dihydroquinazoline] reads 2.8 fold; that for `COc1ccc2c(c1)N=C(C1CCCCC1)N(Cc1ccccc1)C2c1ccccc1` (stereo not drawn) [Compound 5, 3-Benzyl-2-cyclohexyl-7-methoxy-4-phenyl-3,4-dihydroquinazoline], 6.5 fold; that for `COc1ccc2c(c1)N=C(C1CC1)N(Cc1ccccc1)C2c1ccccc1` (stereo not drawn) [Compound 6], 2.7 fold. Still for that read-out and setting: the result for `COc1ccc2c(c1)N=C(C(C)C)N(Cc1ccccc1)C2c1ccccc1` (stereo not drawn) [Compound 7] reads 2.3 fold.

For the compound `CCCCCC1=Nc2cc(OC)ccc2C(c2ccccc2)N1Cc1ccccc1` (stereo not drawn) [Compound 8], in the experiment with human 20S proteasome, the “Fold increase over vehicle (30 μM)” value is 2.8 fold. The same measure, in the same setting: the result for `COc1ccc2c(c1)N=C(C)N(Cc1ccccc1)C2c1ccccc1` (stereo not drawn) [Compound 9] reads 1.8 fold. Consider `COc1ccc2c(c1)N=C(c1ccccc1)N(c1ccccc1)C2c1ccccc1` (stereo not drawn) [Compound 10], for which, in the experiment with human 20S proteasome, the “Fold increase over vehicle (30 μM)” value came out at 9.5 fold. Also, the “concentration at which 20S activity was doubled in the combination (in words)” value with human 20S proteasome (setting [4]) is given as “low μM concentrations”. In addition, the “Max Fold, Combo” value with human 20S proteasome (setting [5]) was 11.1 fold. In experiment [1], the “AC200, CT-L” value was determined as 8.1 µM and the “Max Fold, CT-L” value is 6.7 fold. Besides, in experiment [2], the “AC200, Casp-L” value is 5.8 µM and the “Max Fold, Casp-L” value turned out to be 15.3 fold. Also, in experiment [3], the “AC200, T-L” value was found to be 2.5 µM and the “Max Fold, T-L” value was 15.0 fold. As for `COc1ccc2c(c1)N=C(c1ccccc1)N(c1ccccn1)C2c1ccccc1` (stereo not drawn) [Compound 11, 7-Methoxy-2,4-diphenyl-3-(2-pyridyl)-3,4-dihydroquinazoline], in the experiment on human 20S proteasome, the “Fold increase over vehicle (30 μM)” value was 6.9 fold. Same read-out and setting: the result for `COc1ccc2c(c1)N=C(c1ccccc1)N(c1cccnc1)C2c1ccccc1` (stereo not drawn) [Compound 12] reads 5.9 fold; that for `COc1ccc2c(c1)N=C(c1ccccc1)N(c1cccc3cccnc13)C2c1ccccc1` (stereo not drawn) [Compound 13, 7-Methoxy-2,4-diphenyl-3-(8-quinolyl)-3,4-dihydroquinazoline], 5.3 fold. The same measure, in the same setting: the result for `COc1ccc2c(c1)N=C(c1ccccc1)N(Cc1ccccn1)C2c1ccccc1` (stereo not drawn) [Compound 14, 7-Methoxy-2,4-diphenyl-3-[(2-pyridyl)methyl]-3,4-dihydroquinazoline] reads 2 fold. Still for that read-out and setting: the result for `COc1ccc2c(c1)N=C(c1ccccc1)N(CCc1ccccn1)C2c1ccccc1` (stereo not drawn) [Compound 15, 7-Methoxy-2,4-diphenyl-3-[2-(2-pyridyl)ethyl]-3,4-dihydroquinazoline] reads 2.8 fold; that for `COc1ccc2c(c1)N=C(c1ccccc1)N(C1CCCCC1)C2c1ccccc1` (stereo not drawn) [Compound 16, 3-Cyclohexyl-7-methoxy-2,4-diphenyl-3,4-dihydroquinazoline], 6.7 fold. `COc1ccc2c(c1)N=C(c1ccccc1)N(C1CCN(C)CC1)C2c1ccccc1` (stereo not drawn) [Compound 17, 7-Methoxy-3-(1-methyl-4-piperidyl)-2,4-diphenyl-3,4-dihydroquinazoline]: the “Fold increase over vehicle (30 μM)” value in the experiment on human 20S proteasome turned out to be 1 fold. In addition, the “Max Fold, Combo” value in the experiment with human 20S proteasome (setting [5]) is reported as 1.4 fold. Moreover, in the experiment with human 20S proteasome (screen of Table 1), the “activity towards the 20S (in words)” value was “no discemible activity towards the 20S”. Also, the “Max Fold, CT-L” value in experiment [1] is reported as 1.1 fold. Moreover, the “Max Fold, Casp-L” value in experiment [2] is reported as 0.8 fold. For the same compound, the “Max Fold, T-L” value in experiment [3] came to 1.0 fold. As to `COc1ccc2c(c1)N=C(c1ccccc1)N(CC1CCN(C)CC1)C2c1ccccc1` (stereo not drawn) [Compound 19, 7-Methoxy-3-[(1-methyl-4-piperidyl)methyl]-2,4-diphenyl-3,4-dihydroquinazoline], the “Fold increase over vehicle (30 μM)” value with human 20S proteasome is reported as 1.2 fold.

Consider `COc1ccc2c(c1)N=C(c1ccccc1)N(CC1CCOCC1)C2c1ccccc1` (stereo not drawn) [Compound 20, 7-Methoxy-2,4-diphenyl-3-[(tetrahydro-2H-pyran-4-yl)methyl]-3,4-dihydroquinazoline], for which the “Fold increase over vehicle (30 μM)” value in the experiment with human 20S proteasome is reported as 1.6 fold. With `COc1ccc2c(c1)N=C(c1ccccc1)N(CC1CCCCC1)C2c1ccccc1` (stereo not drawn) [Compound 21, 3-(Cyclohexylmethyl)-7-methoxy-2,4-diphenyl-3,4-dihydroquinazoline], the “Fold increase over vehicle (30 μM)” value in the experiment with human 20S proteasome came out at 8.2 fold.

`COc1ccc2c(c1)N=C(c1ccccc1)N(CC#N)C2c1ccccc1` (stereo not drawn) [Compound 22, (7-Methoxy-2,4-diphenyl-3,4-dihydroquinazolin-3-yl)acetonitrile]: the “Fold increase over vehicle (30 μM)” value in the experiment on human 20S proteasome is reported as 2.7 fold. With `C=CCN1C(c2ccccc2)=Nc2cc(OC)ccc2C1c1ccccc1` (stereo not drawn) [Compound 23], the “Fold increase over vehicle (30 μM)” value in the experiment with human 20S proteasome was 2.3 fold.

As for `CCCCCCN1C(c2ccccc2)=Nc2cc(OC)ccc2C1c1ccccc1` (stereo not drawn) [Compound 24], the “Fold increase over vehicle (30 μM)” value in the experiment with human 20S proteasome worked out at 1.6 fold.
